In patent US20240051937A1, “ISOINDOLINONE AMIDE COMPOUNDS USEFUL TO TREAT DISEASES ASSOCIATED WITH GSPT1” (Monte Rosa Therapeutics, Inc., priority 2021, published 2024):
Like-named read-outs stand apart in the source and are kept apart here.

Assays:
GSPT1 = GSPT1 (Homo sapiens, UniProt P15170+Q96SW2); assay: Immunofluorescence assay for GSPT1 degradation in CAL-Si cells; assay type: cell-based; parameters: CAL-Si cells were purchased from DSMZ (cat. Number ACC302); host or cells: CAL-Si (CAL-51) cells; details: 6 hours treatment
Protocol: The representative compounds were tested in an immunofluorescence assay for their activity to bind to degrade GSPT1. CAL-Si cells were purchased from DSMZ (cat. Number ACC302), sub-cultured in 90% Dulbecco's MEM (4.5 g/L glucose, Gibco 11965)+10% […] inactivated FBS (BioConcept, 2-01F136I) and incubated at 37° C., 5% CO2. For the assay, imaging microtiterplate Cell Carrier 96 Ultra (Perkin Elmer 6055302) were pre-coated with Fibronectin (Sigma F085, 30 μl at 0.2 μg/ml) in PBS (100 μl, Gibco 14190) for 45 min at room temperature, rinsed with PBS and CAL-Si cells (30K cells/well) were plated and let to adhere overnight. Cells were treated with compounds typically using a serial dilution ranging from 30 μM to 0.1 nM for 6 hours. Compounds were stored at 10 mM DMSO stocks. Vehicle (DMSO), positive (CC-885, 10 μM) and rescue controls (positive control plus 0.2 μM bortezomib) were also included at this stage. Cells were subsequently rinsed with PBS and fixed in 10% Formalin solution (50 μl, Sigma HT5011)) for 20 mins at room temperature. Following three consecutive PBS washes (100 μl), cells were permeabilized in 0.1% Triton X-100 in PBS (Sigma 93443, 50 μl) for 15 mins at room temperature. Following three further PBS washes, […] blocking buffer (1% BSA, Sigma A4503, in PBS) was added for 45 min for signal-to-noise reduction.
Primary antibody (human GSPT1, Sigma HPA052488) was diluted in blocking buffer (dil.1/300, 35 μl/well) and incubated with the cells overnight at 4° C. After three PBS washes, Alexa-fluor 488 coupled secondary antibodies (Invitrogen, A32731, dil.1/1000), Alexa-fluor 647-Phalloidin (Invitrogen, A22287, dil.1/200) and DAPI (Thermo, #62248, dil.1/1000) were diluted in blocking buffer and incubated with the samples for 2 hours at room temperature. After three final PBS washes, samples were conserved in […] PBS in the dark, until measurement. Image acquisition was performed on the Operetta High-Content Imager (Perkin-Elmer). Fluorescence intensity of Alexa-Fluor 488 (GSPT1), Alexa-Fluor 647 (Actin) and DAPI (Nucleus) were measured. For the determination of GSPT1 DC50 values, a custom algorithm implemented in the PerkinElmer image analysis software Harmony-Acapella® was developed. After user-defined setting of adjustment parameters, the analysis was run identically without human intervention for all image fields. DAPI staining of the nuclei was used to determine the location of cells using standard nuclei detection modules. Segmentation artifacts were removed by threshold-based filters for area, roundness and intensity. The outline of the cells was determined analogously from the sum of the normalized, smoothed DAPI and Actin channel, starting from each nucleus.
The Alexa-Fluor 488 (GSPT1) signal intensity in each cell was finally measured, in order to obtain a Mean intensity per cell. GSPT1 degradation (DC50) was calculated after normalization to controls and data import in CDD vault Database, using non-linear regression.

[1] = target: T1, Full length wild-type cereblon CRBN (Homo sapiens, UniProt Q96SW2); assay: Fluorescence polarization (FP) assay indicating cereblon binding
T1 construct: Full length wild-type cereblon CRBN (80.0 nM, 10 μL) was incubated in assay buffer
Description: Protocol for Fluorescent Polarization Assay
Compound activity was monitored in a fluorescence polarization (FP) homogeneous assay using 1-[5-({2-[2-(2-{[2-(2,6-dioxopiperidin-3-yl)-1,3-dioxo-2,3-dihydro-1H-isoindol-4-yl]oxy}acetamido)ethoxy]ethyl}carbamoyl)pentyl]-3,3-dimethyl-2-[(1E,3E)-5-[(2E)-1,3,3-trimethyl-5-sulfo-2,3-dihydro-1H-indol-2-ylidene]penta-1,3-dien-1-yl]-3H-indol-1-ium-5-sulfonate as a fluorescent probe. Unless otherwise stated, all reagents were purchased from Sigma Aldrich. Enzymatic reactions were conducted in Perkin-Elmer Black 384 well ProxiPlate Plus (catalogue no. 6008269) in 10 μL total volume. Full length wild-type cereblon CRBN (80.0 nM, 10 μL) was incubated in assay buffer containing 20 mM HEPES (pH 8.0), […], 0.5 mM TCEP and 0.05% Tween 20 in the presence or absence of compound (300 nL). Inhibitors were stored as 10 mM DMSO stocks in an inert environment (low humidity, dark, low oxygen, room temperature) using the Storage Pod System. Compounds and DMSO were dispensed using the Echo E5XX (Labcyte Inc. USA) to give concentrations from 300 to 0.937 or 3000 to 9.3 nM in a 12 data point curve. […] Following incubation at room temperature for 30 min, the assay was initiated by dispensing the probe to a final concentration of 5 nM (2.5 nL of a 20 μM stock) using the Echo E5XX. FP was measured after a period of 12 hours using a Pherastar plate reader (BMG Labtech, Germany) exciting at 590 nm and measuring the amount of parallel and perpendicular light at 675 nm. The FP signal was subsequently normalized to the no-compound control (i.e., DMSO). Analysis and IC50 values were derived using Dotmatics (Dotmatics UK) software.

[2] = read-out: Code: activity for GSPT1 degradation (DC50)
[3] = cereblon binding, CRBN 80.0 nM, probe 5 nM, FP read after 12 hours, read-out: rFP IC50
[4] = GSPT1 degradation, read-out: DC50
[5] = fluorescence polarization assay, read-out: IC50 value (cereblon binding)

Chain of GSPT1 (P15170 whole entry): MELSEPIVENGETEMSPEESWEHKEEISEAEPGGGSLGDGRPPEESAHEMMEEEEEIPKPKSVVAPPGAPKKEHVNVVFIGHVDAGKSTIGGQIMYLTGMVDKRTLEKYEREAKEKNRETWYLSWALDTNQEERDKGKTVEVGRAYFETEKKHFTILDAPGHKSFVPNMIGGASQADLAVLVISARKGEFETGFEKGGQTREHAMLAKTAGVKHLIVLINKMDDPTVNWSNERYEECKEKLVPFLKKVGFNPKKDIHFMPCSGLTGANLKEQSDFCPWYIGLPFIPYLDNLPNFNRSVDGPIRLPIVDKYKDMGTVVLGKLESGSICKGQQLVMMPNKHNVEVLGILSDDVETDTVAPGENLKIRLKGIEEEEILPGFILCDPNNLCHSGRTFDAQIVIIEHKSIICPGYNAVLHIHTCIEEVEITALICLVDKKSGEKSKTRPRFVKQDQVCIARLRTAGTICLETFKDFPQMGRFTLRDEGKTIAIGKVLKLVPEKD
Chain of GSPT1 (Q96SW2 whole entry): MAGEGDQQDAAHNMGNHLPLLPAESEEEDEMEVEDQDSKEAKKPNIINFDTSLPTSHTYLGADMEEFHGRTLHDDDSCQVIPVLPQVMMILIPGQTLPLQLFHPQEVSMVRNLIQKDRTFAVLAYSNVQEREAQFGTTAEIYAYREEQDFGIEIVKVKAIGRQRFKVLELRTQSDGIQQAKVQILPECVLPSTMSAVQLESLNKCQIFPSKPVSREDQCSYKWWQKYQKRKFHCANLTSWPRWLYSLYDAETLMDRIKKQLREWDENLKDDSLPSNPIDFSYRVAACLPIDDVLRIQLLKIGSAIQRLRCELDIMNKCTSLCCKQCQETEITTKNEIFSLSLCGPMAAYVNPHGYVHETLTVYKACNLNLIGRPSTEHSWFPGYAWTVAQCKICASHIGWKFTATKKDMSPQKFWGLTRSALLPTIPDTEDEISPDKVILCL
Chain of GSPT1 (Q16531 whole entry partner): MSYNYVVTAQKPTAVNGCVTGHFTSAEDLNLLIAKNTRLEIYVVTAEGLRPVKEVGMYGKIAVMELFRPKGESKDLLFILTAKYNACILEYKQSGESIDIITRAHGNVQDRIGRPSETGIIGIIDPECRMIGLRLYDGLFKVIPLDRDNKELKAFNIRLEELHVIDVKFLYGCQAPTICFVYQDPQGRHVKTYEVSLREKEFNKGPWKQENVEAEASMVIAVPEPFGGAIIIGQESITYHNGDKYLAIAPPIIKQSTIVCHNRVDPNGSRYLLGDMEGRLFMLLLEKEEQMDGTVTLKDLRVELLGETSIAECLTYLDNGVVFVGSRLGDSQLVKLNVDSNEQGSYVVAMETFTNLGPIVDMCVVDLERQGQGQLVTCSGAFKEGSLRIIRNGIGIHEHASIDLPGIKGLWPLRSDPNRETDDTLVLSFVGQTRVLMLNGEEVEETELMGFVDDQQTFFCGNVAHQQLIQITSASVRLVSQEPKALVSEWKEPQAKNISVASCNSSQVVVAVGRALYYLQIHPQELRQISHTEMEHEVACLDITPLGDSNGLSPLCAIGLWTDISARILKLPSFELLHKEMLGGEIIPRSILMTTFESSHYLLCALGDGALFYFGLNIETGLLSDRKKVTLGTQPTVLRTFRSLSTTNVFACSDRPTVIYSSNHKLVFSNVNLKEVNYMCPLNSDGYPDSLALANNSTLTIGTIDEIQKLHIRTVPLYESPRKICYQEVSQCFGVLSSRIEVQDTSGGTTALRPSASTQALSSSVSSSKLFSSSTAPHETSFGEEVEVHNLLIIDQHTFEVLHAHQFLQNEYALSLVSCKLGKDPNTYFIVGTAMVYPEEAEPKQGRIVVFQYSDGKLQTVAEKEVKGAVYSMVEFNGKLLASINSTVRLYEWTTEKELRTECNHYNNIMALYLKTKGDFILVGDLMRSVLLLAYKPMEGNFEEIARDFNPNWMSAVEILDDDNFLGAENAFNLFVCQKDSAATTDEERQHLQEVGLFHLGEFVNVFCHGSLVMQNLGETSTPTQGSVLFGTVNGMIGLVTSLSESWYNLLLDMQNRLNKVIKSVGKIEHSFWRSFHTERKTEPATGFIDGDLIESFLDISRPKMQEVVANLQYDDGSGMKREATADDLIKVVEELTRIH
T1 sequence (Q96SW2 whole entry): as the sequence (Q96SW2 whole entry) above

Row | Structure (SMILES) | DC50 (GSPT1; [2]) | IC50 [1, 3] | DC50 (GSPT1; [4]) | IC50 [1, 5]
1 | O=C1CCC(N2Cc3ccc(CCC(=O)Nc4cc(F)cc(Cl)c4)cc3C2=O)C(=O)N1 (stereo not drawn) [Compound 18] | > 300 nM | > 1700 nM |  | 
2 | CCc1cc(NC(=O)CCc2ccc3c(c2)C(=O)N(C2CCC(=O)NC2=O)C3)cc(Cl)c1C (stereo not drawn) [Compound 43] | ≤ 30 nM | 1100 to 1700 nM | 26 nM | 
3 | O=C1CCC(N2Cc3ccc(CCC(=O)Nc4cc(Cl)cc(OC(F)F)c4)cc3C2=O)C(=O)N1 (stereo not drawn) [Compound 23] | ≤ 30 nM | > 1700 nM | 27 nM | 
4 | CCOc1cc(NC(=O)CCc2ccc3c(c2)C(=O)N(C2CCC(=O)NC2=O)C3)ccc1C (stereo not drawn) [Compound 32] | 30 to 300 nM | 500 to 1100 nM |  | < 1100 nM
5 | O=C1CCC(N2Cc3ccc(CCC(=O)Nc4cnc5c(c4)COCC5)cc3C2=O)C(=O)N1 (stereo not drawn) [Compound 48] | > 300 nM | 1100 to 1700 nM |  | 
6 | O=C1CCC(N2Cc3ccc(CCC(=O)Nc4cc(CN5CCOCC5)cc(OC(F)F)c4)cc3C2=O)C(=O)N1 (stereo not drawn) [Compound 66] | 30 to 300 nM | > 1700 nM |  | 
7 | O=C1CCC(N2Cc3ccc(CCC(=O)Nc4cc(OC(F)(F)F)ccn4)cc3C2=O)C(=O)N1 (stereo not drawn) [Compound 59] | > 300 nM | 500 to 1100 nM |  | < 1100 nM
8 | O=C1CCC(N2Cc3ccc(CCC(=O)N4CCCC4)cc3C2=O)C(=O)N1 (stereo not drawn) [Compound 15] | > 300 nM | 1100 to 1700 nM |  | 
9 | Cc1c(Cl)cc(NC(=O)CNc2ccc3c(c2)C(=O)N(C2CCC(=O)NC2=O)C3)cc1CN1CCOCC1 (stereo not drawn) [Compound 67, N-(3-chloro-4-methyl-5-(morpholinomethyl)phenyl)-2-((2-(2,6-dioxopiperidin-3-yl)-3-oxoisoindolin-5-yl)amino)acetamide] | > 300 nM | ≤ 500 nM |  | 
10 | CCc1cc(NC(=O)CCc2ccc3c(c2)C(=O)N(C2CCC(=O)NC2=O)C3)cc(C)n1 (stereo not drawn) [Compound 57] | > 300 nM | ≤ 500 nM |  | < 1100 nM
11 | O=C1CCC(N2Cc3ccc(CCC(=O)Nc4ccc(F)c(OC(F)(F)F)c4)cc3C2=O)C(=O)N1 (stereo not drawn) [Compound 60] | 30 to 300 nM | > 1700 nM |  | 
12 | O=C1CCC(N2Cc3ccc(CCC(=O)Nc4ccc(-c5ccccn5)cc4)cc3C2=O)C(=O)N1 (stereo not drawn) [Compound 44] | ≤ 30 nM | 500 to 1100 nM | 27 nM | < 1100 nM
13 | CCc1cc(NC(=O)CCc2ccc3c(c2)C(=O)N(C2CCC(=O)NC2=O)C3)ccn1 (stereo not drawn) [Compound 54] | > 300 nM | 500 to 1100 nM |  | < 1100 nM
14 | O=C1CCC(N2Cc3ccc(CCC(=O)NC4CCN(c5ccccn5)CC4)cc3C2=O)C(=O)N1 (stereo not drawn) [Compound 12] | > 300 nM | 500 to 1100 nM |  | < 1100 nM
15 | Cc1ncc(NC(=O)CCc2ccc3c(c2)C(=O)N(C2CCC(=O)NC2=O)C3)cc1OC(F)(F)F (stereo not drawn) [Compound 64] | 30 to 300 nM | 1100 to 1700 nM |  | 
16 | Cc1c(Cl)cc(NC(=O)CCc2ccc3c(c2)C(=O)N(C2CCC(=O)NC2=O)C3)cc1OCC1CCN(C)C1 (stereo not drawn) [Compound 61] | > 300 nM | ≤ 500 nM |  | < 1100 nM
17 | O=C1CCC(N2Cc3ccc(CCC(=O)N4CCN(c5ccccc5)CC4)cc3C2=O)C(=O)N1 (stereo not drawn) [Compound 27] | > 300 nM | > 1700 nM |  | 
18 | CC(C)CCNC(=O)CCc1ccc2c(c1)C(=O)N(C1CCC(=O)NC1=O)C2 (stereo not drawn) [Compound 6] | > 300 nM | > 1700 nM |  | 
19 | Cc1c(Cl)cc(NC(=O)CCc2ccc3c(c2)C(=O)N(C2CCC(=O)NC2=O)C3)cc1CN1CC2CC1CO2 (stereo not drawn) [Compound 22] | 30 to 300 nM | 500 to 1100 nM |  | < 1100 nM
20 | O=C1CCC(N2Cc3ccc(CCC(=O)Nc4ccc5c(c4)OCC5)cc3C2=O)C(=O)N1 (stereo not drawn) [Compound 26] | > 300 nM | 500 to 1100 nM |  | < 1100 nM
21 | O=C1CCC(N2Cc3ccc(CCC(=O)Nc4cc(F)cc(OC(F)F)c4)cc3C2=O)C(=O)N1 (stereo not drawn) [Compound 28] | 30 to 300 nM | 500 to 1100 nM |  | < 1100 nM
22 | COc1cc(Cl)ccc1NC(=O)CCc1ccc2c(c1)C(=O)N(C1CCC(=O)NC1=O)C2 (stereo not drawn) [Compound 16] | > 300 nM | ≤ 500 nM |  | < 1100 nM
23 | O=C1CCC(N2Cc3ccc(CCC(=O)Nc4cc(Cl)cc(OC(F)(F)F)c4)cc3C2=O)C(=O)N1 (stereo not drawn) [Compound 11] | ≤ 30 nM | > 1700 nM | 17 nM | 
24 | O=C1CCC(N2Cc3ccc(CCC(=O)Nc4cc(F)cc(OC(F)(F)F)c4)cc3C2=O)C(=O)N1 (stereo not drawn) [Compound 56] | 30 to 300 nM | > 1700 nM |  | 
25 | CN1CCC(Oc2cc(Cl)cc(NC(=O)CCc3ccc4c(c3)C(=O)N(C3CCC(=O)NC3=O)C4)c2)C1 (stereo not drawn) [Compound 31] | 30 to 300 nM | 500 to 1100 nM |  | < 1100 nM
26 | COc1ccc(Cl)cc1NC(=O)CCc1ccc2c(c1)C(=O)N(C1CCC(=O)NC1=O)C2 (stereo not drawn) [Compound 14] | > 300 nM | 500 to 1100 nM |  | < 1100 nM
27 | COc1cc(NC(=O)CCc2ccc3c(c2)C(=O)N(C2CCC(=O)NC2=O)C3)ccc1C (stereo not drawn) [Compound 33] | 30 to 300 nM | 500 to 1100 nM |  | < 1100 nM
28 | O=C1CCC(N2Cc3ccc(CCC(=O)Nc4ccc(C5CC5)cc4)cc3C2=O)C(=O)N1 (stereo not drawn) [Compound 38] | > 300 nM | ≤ 500 nM |  | < 1100 nM
29 | O=C1CCC(N2Cc3ccc(CCC(=O)Nc4ccc(N5CCCCC5)nc4)cc3C2=O)C(=O)N1 (stereo not drawn) [Compound 20] | 30 to 300 nM | 500 to 1100 nM |  | < 1100 nM
